Experimental data taken from patent US20040029100A1, “Rapid screen to identify p-glycoprotein substrates and high affinity modulators” (priority 2000, published 2004).
Like-named read-outs stand apart in the source and are kept apart here. Square brackets hold non-standard residues; d marks the D form. Peptide text beside a SMILES is read from it. * marks the point of attachment. Sta = CC(C)C[C@H](N)[C@@H](O)CC(=O)O; Isovaleryl = CC(C)CC(=O)*; Cbz = O=C(OCc1ccccc1)*; Boc = CC(C)(C)OC(=O)*; OBn = c1ccc(CO*)cc1; OtBu = CC(C)(C)O*

Key:
[1] = target: T1, P-glycoprotein (Pgp) purified from MDR CH^RB30 Chinese hamster ovary cells (Cricetulus griseus, UniProt P21448); assay: Quenching of intrinsic Trp fluorescence of purified Pgp by nucleotides, drugs and peptides; details: for ΔFmax: maximal quenching reached at saturation
Method: (§1) Purification of Pgp. Pgp was purified from plasma membrane of MDR CH^RB30 cells by a modification of the method previously described for CH^RC5 (27). […] Contaminating glycoproteins were removed from the S2 fraction by passing through a concanavalinA-Sepharose 4B column (Pharmacia) equilibrated with 2 mM CHAPS buffer. […] The Pgp preparation was kept on ice and used within 24 h.
(§2) Steady-state Fluorescence Measurements. Steady-state fluorescence measurements were performed using a Spex Model DM3000 spectrofluorimeter (Spex Industries Inc., Edison, N.J.) at 22° C., with excitation and emission bandpass set to 4 nm. Most fluorescence studies were carried out on solutions of 100 μg/mL Pgp in 2 mM CHAPS buffer, in the presence of 0.5 mg/mL of the phospholipid PMPC (Avanti Polar Lipids, Alabaster, Ala.). PMPC was added as extruded 100 nm unilamellar vesicles (8). With some drugs, the use of a lipid was not required for the fluorescence measurements. The excitation and emission spectra were the average of three scans, and were corrected by subtracting control scans with the same phospholipid buffer in the absence of protein.
(§3) Quenching Studies using TNP-Nucleotide Derivatives and Drugs. […] Working solutions of TNP-derivatives, and non-peptide drugs and modulators were also prepared in 2 mM CHAPS with 0.5 mg/mL PMPC vesicles, whereas peptide-based drugs and modulators were dissolved in dimethylsulfoxide (DMSO). […] Quenching experiments were performed by successively adding 5 μL aliquots of TNP-derivatives or drug solution to 500 μL of Pgp solution in a 0.5 cm quartz cuvette. After each addition, the sample was excited at 290 nm and the steady-state fluorescence emission was measured at 330 nm. Fluorescence intensities were corrected for dilution, scattering, and the inner filter effect as described elsewhere (8). Control titrations were performed with 30 μM NATA to assess the non-specific quenching of Trp fluorescence by TNP-nucleotide derivatives and drugs.
(§4) The experimental quenching data were computer-fitted to the following equation as described previously (8)(9): [formula]
(§5) where (ΔF/F0 100) is the percent quenching (percent change in fluorescence relative to the initial value), following addition of substrate at a concentration [S], and Kd is the dissociation constant. Fitting was carried out using nonlinear regression with the Marquardt-Levenberg algorithm (SigmaPlot, SPSS Inc., Chicago, Ill.), and values of Kd and (ΔFmax/F0 100) were extracted. For biphasic titration curves, each section of the binding curve was fitted to the above equation separately, as described previously (32).

[2] = target: Pgp ATPase (Cricetulus griseus, UniProt P21448); assay: Pgp ATPase activity; type: biochemical; details: over the range 0.3-0.5 M
[3] = target: T1, P-glycoprotein (Pgp) purified from MDR CH^RB30 Chinese hamster ovary cells; assay: Trp fluorescence lifetime of purified Pgp in presence of nucleotides and drugs; parameters: Pgp was purified from plasma membrane of MDR CH^RB30 cells; endogenous in cells; host or cells: MDR CH^RB30 Chinese hamster ovary cells (plasma membrane, CHAPS extraction, concanavalin A-Sepharose pass-through); details: Pgp Trp decay, concentration of substance
Method: as §1
Fluorescence Lifetime Measurements. Fluorescence decays were measured with a PTI Model C-720 fluorescence lifetime instrument ((28), Photon Technology International Inc., Lawrenceville, N.J.) utilizing a proprietary stroboscopic detection technique (29). […] Fluorescence decays were analyzed with a PTI TimeMaster Pro analysis package using a discrete 1- to 4- exponential fit, 1- to 4-exponential global analysis, or lifetime distribution analysis by the Exponential Series Method (ESM) (30). The quality of fits was judged by chi-square values and weighed residuals.

[4] = target: P-glycoprotein (Pgp) (Cricetulus griseus, UniProt P21448); assay: in vitro; details: Chinese hamster, Kd2
Method: as §1, §2, §3, §4, §5

[5] = maximal Trp quenching, single or higher affinity component
[6] = read-out: Kd1, single binding site or high affinity site, 100 μg/mL Pgp, 2 mM CHAPS, 0.5 mg/mL PMPC, 22° C.
[7] = Kd1, single binding site or high affinity site, 100 μg/mL Pgp, 2 mM CHAPS, 0.5 mg/mL PMPC, 22° C.
[8] = maximal Trp quenching, lower affinity component
[9] = read-out: Kd2, lower affinity site of biphasic quench curve

T1 sequence (P21448 whole entry): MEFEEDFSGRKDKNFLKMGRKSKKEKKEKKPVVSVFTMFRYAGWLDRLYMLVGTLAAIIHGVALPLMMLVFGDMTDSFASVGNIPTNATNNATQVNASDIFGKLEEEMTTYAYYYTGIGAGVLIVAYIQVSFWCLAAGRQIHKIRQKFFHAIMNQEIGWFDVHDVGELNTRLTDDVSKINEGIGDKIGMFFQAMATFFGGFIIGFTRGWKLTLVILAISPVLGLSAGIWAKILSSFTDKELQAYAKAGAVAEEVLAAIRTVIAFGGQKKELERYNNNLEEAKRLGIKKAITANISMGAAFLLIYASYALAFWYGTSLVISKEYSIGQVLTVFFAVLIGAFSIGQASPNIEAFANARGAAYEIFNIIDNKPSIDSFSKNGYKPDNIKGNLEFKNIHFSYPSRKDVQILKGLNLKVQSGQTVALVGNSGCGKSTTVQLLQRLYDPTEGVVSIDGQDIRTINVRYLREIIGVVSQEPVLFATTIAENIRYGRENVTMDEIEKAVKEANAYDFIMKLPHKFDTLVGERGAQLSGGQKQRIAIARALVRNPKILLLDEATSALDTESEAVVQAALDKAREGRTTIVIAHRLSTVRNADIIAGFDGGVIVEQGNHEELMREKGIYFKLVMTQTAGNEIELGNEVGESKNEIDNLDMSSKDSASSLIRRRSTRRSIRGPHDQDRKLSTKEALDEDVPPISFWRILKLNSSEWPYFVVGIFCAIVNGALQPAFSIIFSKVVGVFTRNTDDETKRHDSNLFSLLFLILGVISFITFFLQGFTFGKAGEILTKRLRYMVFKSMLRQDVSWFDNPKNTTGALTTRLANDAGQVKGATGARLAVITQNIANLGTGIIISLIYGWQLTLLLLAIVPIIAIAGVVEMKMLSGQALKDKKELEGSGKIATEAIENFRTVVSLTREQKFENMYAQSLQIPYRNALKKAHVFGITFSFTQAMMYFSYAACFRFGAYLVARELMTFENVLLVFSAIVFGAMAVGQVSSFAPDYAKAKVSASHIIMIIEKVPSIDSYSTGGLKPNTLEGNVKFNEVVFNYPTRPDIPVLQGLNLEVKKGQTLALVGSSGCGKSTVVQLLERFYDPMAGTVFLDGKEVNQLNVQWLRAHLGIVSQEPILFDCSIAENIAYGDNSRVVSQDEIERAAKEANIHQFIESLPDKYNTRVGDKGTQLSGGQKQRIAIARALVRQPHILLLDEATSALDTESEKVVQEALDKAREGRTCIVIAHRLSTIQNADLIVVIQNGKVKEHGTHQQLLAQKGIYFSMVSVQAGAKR
Sequence of P-glycoprotein (Pgp) (P21448 whole entry): as above
Sequence of Pgp ATPase (P21448 whole entry): as above

Nc1ncnc2c1ncn2[C@@H]1O[C@H](COP(=O)([O-])OP(=O)([O-])O)[C@@H](O)[C@H]1O.[Na+].[Na+] [ADP, disodium-ADP]
ΔFmax1 [1, 5]: 9.46% | ΔFmax [1]: ~10% | Kd [1, 6]: 330 µM | Kd ([1]; single type of binding site): ~300 µM

Nc1ncnc2c1ncn2C1OC(COP(=O)(O)OP(=O)(O)NP(=O)(O)O)C(O)C1O (stereo not shown) [AMP-PNP, 5′-adenylylimido-diphosphate]
ΔFmax1 [1, 5]: 10.6% | ΔFmax [1]: ~10% | Kd ([1]; single type of binding site): 210 µM

Nc1ncnc2c1ncn2[C@@H]1O[C@H](COP(=O)(O)OP(=O)([O-])OP(=O)([O-])O)[C@@H](O)[C@H]1O.[Na+].[Na+] [ATP, disodium-ATP]
ΔFmax1 [1, 5]: 10.4% | ΔFmax [1]: ~10% | Kd [1, 6]: 280 µM | Kd ([1]; single type of binding site): ~300 µM

CCCCCCCCCCCCCCCCCCOP(=O)([O-])OC1CC[N+](C)(C)CC1 [D21266]
ΔFmax1 [1, 5]: 13.0 ± 1.15% | Kd [1, 6]: 20.1 ± 3.4 µM

CCCCCCCCCCCCCCCCCCOP(=O)(O)OCC[N+]1(C)CCCCC1 [D-20133]
ΔFmax1 [1, 5]: 12.3 ± 0.89% | Kd [1, 6]: 12.8 ± 2.1 µM

CCOc1ccc(-c2nc3ccc(-c4nc5ccc(N6CCN(C)CC6)cc5[nH]4)cc3[nH]2)cc1 [Hoechst 33342]
ΔFmax1 [1, 5]: 57.2 ± 1.97% | Kd [1, 6]: 2.61 ± 0.182 µM

O=c1cc(N2CCOCC2)oc2c(-c3ccccc3)cccc12 [LY294002]
Kd [1, 7]: 6.29 ± 0.88 µM | Kd ([1]; Kd2, lower affinity site of biphasic quench curve): 11.5 ± 1.5 µM | ΔFmax2 [1, 8]: 36.2 ± 2.0% | ΔFmax1 [1, 5]: 29.7 ± 1.6%

C/C=C/C[C@@H](C)C(=O)[C@H]1C(=O)N[C@@H](C(C)C)C(=O)N(C)CC(=O)N(C)[C@@H](CC(C)C)C(=O)N[C@@H](C(C)C)C(=O)N(C)[C@@H](CC(C)C)C(=O)N[C@@H](C)C(=O)N[C@H](C)C(=O)N(C)[C@@H](CC(C)C)C(=O)N(C)[C@@H](CC(C)C)C(=O)N(C)[C@@H](C(C)C)C(=O)N1C [PSC833]
Kd [1]: 0.081 ± 0.0071 µM | ΔFmax1 [1, 5]: 4.02 ± 0.079%

C=CC(N)=O [acrylamide]
decline in catalytic activity (ATP hydrolysis by Pgp) [2]: ~20%

COc1cc2c(c(OC)c1OC)-c1ccc(OC)c(=O)cc1[C@@H](NC(C)=O)CC2 [colchicine]
ΔFmax1 [1, 5]: 102.2 ± 5.7% | <tav> (amplitude average lifetime) [3]: 2.63 ns | a1 (pre-exponential value) [3]: 0.66 | a2 (pre-exponential value) [3]: 0.39 | t1 (fluorescence lifetime) [3]: 1.4 ns | t2 (fluorescence lifetime) [3]: 4.7 ns

COc1cccc2c1C(=O)c1c(O)c3c(c(O)c1C2=O)C[C@@](O)(C(C)=O)C[C@@H]3O[C@H]1C[C@H](N)[C@H](O)[C@H](C)O1 [daunorubicin]
Kd [4]: 10.7 ± 1.7 µM | Kd [1]: 2.97 ± 0.38 µM | ΔFmax1 [1]: 22.7 ± 1.3% | ΔFmax2 [1]: 38.2 ± 2.4% | <tav> (amplitude average lifetime) [3]: 2.61 ns | a1 (pre-exponential value) [3]: 0.71 | a2 (pre-exponential value) [3]: 0.52 | t1 (fluorescence lifetime) [3]: 1.3 ns | t2 (fluorescence lifetime) [3]: 4.4 ns

COc1cccc2c1C(=O)c1c(O)c3c(c(O)c1C2=O)C[C@@](O)(C(=O)CO)C[C@@H]3O[C@H]1C[C@H](N)[C@H](O)[C@H](C)O1 [doxorubicin]
Kd [4]: 21.6 ± 3.2 µM | Kd [1]: 5.44 ± 0.55 µM | ΔFmax2 [1, 8]: 38.7 ± 3.0% | ΔFmax1 [1, 5]: 19.5 ± 0.90%

CCCCCCCCCCCCCCCCOP(=O)([O-])OCC[N+](C)(C)C [mitelfosine]
ΔFmax1 [1]: 12.0 ± 1.0% | Kd [1, 6]: 20.6 ± 3.3 µM

CC(C)CC(=O)N[C@H](C(=O)N[C@H](C(=O)N[C@@H](CC(C)C)[C@@H](O)CC(=O)N[C@@H](C)C(=O)N[C@@H](CC(C)C)[C@@H](O)CC(=O)O)C(C)C)C(C)C [pepstatin A] (Isovaleryl-VV[Sta]A[Sta]-OH)
Kd [1, 7]: 9.53 ± 0.78 µM | ΔFmax1 [1, 5]: 4.46 ± 0.073%

C=C[C@H]1C[N@@]2CC[C@H]1C[C@H]2[C@H](O)c1ccnc2ccc(OC)cc12 [quinine]
ΔFmax1 [1]: 33.5 ± 2.2%

CC(C)(C)OC(=O)N[C@@H](CC(=O)OCc1ccccc1)C(=O)N[C@@H](CCCCNC(=O)OCc1ccccc1)C(=O)OC(C)(C)C [reversin 201] (Boc-Asp(OBn)-Lys(Cbz)-OtBu; N-terminus and C-terminus assumed)
Kd ([1]; Kd1): 0.23 ± 0.02 µM

COC(=O)[C@H](CCCCNC(=O)[C@H](CCC(=O)OCc1ccccc1)NC(=O)OC(C)(C)C)NC(=O)[C@H](CCC(=O)OCc1ccccc1)NC(=O)OC(C)(C)C [reversin 205]
Kd ([1]; Kd1): 0.37 ± 0.037 µM | ΔFmax1 [1, 5]: 5.41 ± 0.13%

CCN(CC)c1ccc2c(-c3ccccc3C(=O)O)c3ccc(=[N+](CC)CC)cc-3oc2c1 [rhodamine B]
Kd [1, 6]: 4 ± 0.45 µM | Kd [1, 9]: 33.2 ± 3.1 µM

CN1CCN(CCCN2c3ccccc3Sc3ccc(C(F)(F)F)cc32)CC1 [trifluoperazine]
Kd [4]: 16.8 ± 1.6 µM | ΔFmax2 [1, 8]: 67.7 ± 4.1% | ΔFmax1 [1, 5]: 18.9 ± 0.87% | <tav> (amplitude average lifetime) [3]: 2.15 ns | a1 (pre-exponential value) [3]: 0.72 | a2 (pre-exponential value) [3]: 0.35 | t1 (fluorescence lifetime) [3]: 1.1 ns | t2 (fluorescence lifetime) [3]: 4.3 ns

CC(C)[C@@H]1NC(=O)[C@H](C)OC(=O)[C@@H](C(C)C)NC(=O)[C@@H](C(C)C)OC(=O)[C@H](C(C)C)NC(=O)[C@H](C)OC(=O)[C@@H](C(C)C)NC(=O)[C@@H](C(C)C)OC(=O)[C@H](C(C)C)NC(=O)[C@H](C)OC(=O)[C@@H](C(C)C)NC(=O)[C@@H](C(C)C)OC1=O [valinomycin]
Kd [1]: 0.72 ± 0.084 µM | ΔFmax1 [1, 5]: 4.14 ± 0.086%

CC[C@]1(O)C[C@@H]2CN(CCc3c([nH]c4ccccc34)[C@@](C(=O)OC)(c3cc4c(cc3OC)N(C)[C@H]3[C@@](O)(C(=O)OC)[C@H](OC(C)=O)[C@]5(CC)C=CCN6CC[C@]43[C@@H]65)C2)C1 [vinblastine]
Kd [1]: 0.5 ± 0.08 µM | ΔFmax1 [1, 5]: 17.5 ± 0.82% | <tav> (amplitude average lifetime) [3]: 2.17 ns | a1 (pre-exponential value) [3]: 1.07 | a2 (pre-exponential value) [3]: 0.51 | t1 (fluorescence lifetime) [3]: 1.1 ns | t2 (fluorescence lifetime) [3]: 4.4 ns

TNP-ATP
ΔFmax1 [1, 5]: 79.6% | ΔFmax [1]: ~80% | Kd ([1]; nucleotide alone, absence of drug): 51 µM | Kd [1, 6]: 50.6 µM | Kd ([1]; titration following daunorubicin binding): 65 µM | Kd ([1]; titration following saturation with vinblastine): 64 µM | <tav> (amplitude average lifetime) [3]: 2.14 ns | a1 (pre-exponential value) [3]: 0.69 | a2 (pre-exponential value) [3]: 0.42 | t1 (fluorescence lifetime) [3]: 1.0 ns | t2 (fluorescence lifetime) [3]: 4.0 ns

rhodamine 123
Kd [1]: 6.81 ± 0.71 µM | ΔFmax2 [1, 8]: 107.2 ± 1.8% | ΔFmax1 [1, 5]: 47.5 ± 2.5% | ΔFmax [1]: ~100% | Kd [1, 9]: 29.8 ± 1 µM | <tav> (amplitude average lifetime) [3]: 2.73 ns | a1 (pre-exponential value) [3]: 0.65 | a2 (pre-exponential value) [3]: 0.43 | t1 (fluorescence lifetime) [3]: 1.5 ns | t2 (fluorescence lifetime) [3]: 4.6 ns

tetramethylrosamine
ΔFmax1 [1]: 21.0 ± 3.3% | ΔFmax2 [1]: 32.8 ± 0.88% | <tav> (amplitude average lifetime) [3]: 3.9 ns | a1 (pre-exponential value) [3]: 2.43 | a2 (pre-exponential value) [3]: 1.1 | t1 (fluorescence lifetime) [3]: 0.55 ns
